From patent US6406680B1, “X-ray contrast agents” (Nycomed Imaging AS, priority 1999, dated 2002)
≈ marks a conversion by molar mass, not a printed value.

Assays:
[1] = Aqueous solubility at 20° C.; assay type: physicochemical; settings: water
mice = settings: cited from earlier work

| solubility [1] | solubility ([1]; Table 1) | SMILES | toxicity (LD 50 in mice, intravenous) (mice) |
| --- | --- | --- | --- |
| 0.183 mg/mL (≈ 0.296 mM) | 0.183 mg/mL (≈ 0.296 mM) | OCC(I)=C(I)C(I)=C(I)CO [Compound 16, 2,3,4,5-Tetraiodo-2,4-hexadiene-1,6-diol] |  |
| 18.4 mg/mL (≈ 47.9 mM) | 18.4 mg/mL (≈ 47.9 mM) | OCC(O)COCC(I)=CI (centres unmarked) [Compound 5, 3-(2,3-Diiodo-2-propenyloxy)-propane-1,2-diol] |  |
| 7.2 mg/mL (≈ 16.8 mM) | 7.2 mg/mL (≈ 16.8 mM) | OCCOCC(I)=C(I)COCCO [Compound 9, 2,2′-[2,3-Diiodo-2-butene-1,4-diylbis(oxy)]-bis-ethanol] |  |
| 0.534 mg/mL (≈ 1.57 mM) | 0.534 mg/mL (≈ 1.57 mM) | OCC(I)=C(I)CO [Compound 12, 2,3-Diiodo-2-butene-1,4-diol] |  |
| > 1.2 mg/mL | > 1200 mg/mL | OCC(I)=C(I)COCC(O)CO (centres unmarked) [Compound 13, 3-[(2,3-Diiodo-4-hydroxy-2-butenyl)oxy]-propane-1,2-diol] |  |
| 0.5 mg/mL (≈ 0.981 mM) | 0.5 mg/mL (≈ 0.981 mM) | OCC(O)COCC(I)=C(I)I (centres unmarked) [Compound 6, 3-(2,3,3-Triiodo-2-propenyloxy)-propane-1,2-diol] |  |
| > 1.2 mg/mL | > 1200 mg/mL | OCC(O)COCC(I)=C(I)COCC(O)CO (centres unmarked) [Compound 14, 3,3′-[2,3-Diiodo-2-butene-1,4-diylbis(oxy)]-bis-propane-1,2-diol] |  |

| SMILES | solubility [1] | solubility ([1]; Table 1) | toxicity (LD 50 in mice, intravenous) (mice) |
| --- | --- | --- | --- |
| OCC(I)=CI [Compound 2, 2,3-Diiodo-2-propene-1-ol] | 3.91 mg/mL (≈ 12.6 mM) | 0.391 mg/mL (≈ 1.26 mM) |  |
| CC(=O)N(CC(O)CO)c1c(I)c(C(=O)NCC(O)CO)c(I)c(C(=O)NCC(O)CO)c1I (centres unmarked) [Iohexol, iohexol, reference compound] |  | > 1200 mg/mL | 33700 mg/kg |
| OCC(I)=C(I)I [Compound 3, 2,3,3-Triiodo-2-propene-1-ol] | 0.198 mg/mL (≈ 0.454 mM) | 0.198 mg/mL (≈ 0.454 mM) |  |
